Laboratory results from article PMC3946003, “Protein kinase inhibitor SU6668 attenuates positive regulation of Gli proteins in cancer and multipotent progenitor cells” (Biochimica et Biophysica Acta, 2014).

What was measured:
[1] = molecular target: T1, ULK3 (Homo sapiens, UniProt Q6PHR2)
T1 sequence (Q6PHR2 1-472): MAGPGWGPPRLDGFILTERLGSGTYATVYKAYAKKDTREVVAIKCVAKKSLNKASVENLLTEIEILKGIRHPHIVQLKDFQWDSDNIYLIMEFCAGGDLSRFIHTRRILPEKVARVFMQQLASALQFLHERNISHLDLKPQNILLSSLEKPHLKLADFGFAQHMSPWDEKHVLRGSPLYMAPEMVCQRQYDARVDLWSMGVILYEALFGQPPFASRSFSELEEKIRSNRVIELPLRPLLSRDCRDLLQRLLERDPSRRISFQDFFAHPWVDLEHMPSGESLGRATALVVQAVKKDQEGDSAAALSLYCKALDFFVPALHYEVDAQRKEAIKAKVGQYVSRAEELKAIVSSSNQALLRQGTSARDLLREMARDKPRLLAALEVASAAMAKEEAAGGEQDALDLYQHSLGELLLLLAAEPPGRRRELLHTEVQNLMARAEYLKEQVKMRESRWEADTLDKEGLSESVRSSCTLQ

[2] = molecular target: T1, ULK3; assay: in vitro kinase assay (ULK3 autophosphorylation, […] ATP); Ki calculated from IC50 […]; assay type: biochemical; parameters: bacterially expressed and purified His-tagged ULK3 protein

| Ki [2] [µM] | Compound | Km [1] [µM] |
| --- | --- | --- |
|  | Nc1ncnc2c1ncn2[C@@H]1O[C@H](COP(=O)(O)OP(=O)(O)OP(=O)(O)O)[C@@H](O)[C@H]1O [ATP] | 3.2 |
| ~0.2 | Cc1[nH]c(/C=C2\C(=O)Nc3ccccc32)c(C)c1CCC(=O)O [SU6668, (Z)-5-[(1,2-dihydro-2-oxo-3H-indol-3-ylidene)methyl]-2,4-dimethyl-1H-pyrrole-3-propanoic acid] |  |
